Source: PMC11859928, “Design, Synthesis, and Antiproliferative Activity of Novel Indole/1,2,4-Triazole Hybrids as Tubulin Polymerization Inhibitors” (Pharmaceuticals, 2025)

Assays:
Test in all cases: NCI one-dose assay
UO-31 = format: cell-based, human; settings: for inhibition at 10 µM: Homo sapiens, UO-31, UO-31, Renal cancer, read-out: Cell growth inhibition %
786-0 = format: cell-based, human; settings: Homo sapiens, 786-0, 786-0, Renal cancer, read-out: Cell growth inhibition %
HOP-92 = format: cell-based, human; settings: Homo sapiens, HOP-92, HOP-92, Non-small cell lung cancer, read-out: Cell growth inhibition %
HL-60(TB) = format: cell-based; settings: Homo sapiens, Leukemia, read-out: Cell growth inhibition %
OVCAR-3 = format: cell-based; settings: Homo sapiens, OVCAR-3, Ovarian cancer, read-out: Cell growth inhibition %
SN12C = format: cell-based; settings: Homo sapiens, Renal cancer, read-out: Cell growth inhibition %
TK-10 = format: cell-based; settings: Homo sapiens, TK-10, Renal cancer, read-out: Cell growth inhibition %
HOP-62 = format: cell-based; settings: Homo sapiens, HOP-62, Non-small cell lung cancer, read-out: Cell growth inhibition %
MCF7 = format: cell-based; settings: Homo sapiens, MCF7, Breast cancer, read-out: Cell growth inhibition %
CAKI-1 = format: cell-based; settings: Homo sapiens, CAKI-1, Renal cancer, read-out: Cell growth inhibition %
OVCAR-5 = format: cell-based; settings: Homo sapiens, OVCAR-5, Ovarian cancer, read-out: Cell growth inhibition %
NCI-H522 = format: cell-based; settings: Homo sapiens, NCI-H522, Non-small cell lung cancer, read-out: Cell growth inhibition %
UACC-257 = format: cell-based; settings: Homo sapiens, UACC-257, Melanoma, read-out: Cell growth inhibition %
DU-145 = format: cell-based; settings: Homo sapiens, DU-145, Prostate cancer, read-out: Cell growth inhibition %
SK-MEL-2 = format: cell-based; settings: Homo sapiens, SK-MEL-2, Melanoma, read-out: Cell growth inhibition %
SW-620 = format: cell-based; settings: Homo sapiens, SW-620, Colon cancer, read-out: Cell growth inhibition %
SNB-19 = format: cell-based; settings: Homo sapiens, SNB-19, CNS cancer, read-out: Cell growth inhibition %
ACHN = format: cell-based; settings: Homo sapiens, Renal cancer, read-out: Cell growth inhibition %
U251 = format: cell-based; settings: Homo sapiens, U-251, U251, CNS cancer, read-out: Cell growth inhibition %
KM12 = format: cell-based; settings: Homo sapiens, KM12, Colon cancer, read-out: Cell growth inhibition %
HCT-116 = format: cell-based; settings: Homo sapiens, HCT-116, Colon cancer, read-out: Cell growth inhibition %
CCRF-CEM = format: cell-based; settings: Homo sapiens, Leukemia, read-out: Cell growth inhibition %
NCI-H23 = format: cell-based; settings: Homo sapiens, NCI-H23, Non-small cell lung cancer, read-out: Cell growth inhibition %
SNB-75 = format: cell-based; settings: Homo sapiens, SNB-75, CNS cancer, read-out: Cell growth inhibition %
NCI-H322M = format: cell-based; settings: Homo sapiens, Non-small cell lung cancer, read-out: Cell growth inhibition %
NCI-H226 = format: cell-based; settings: Homo sapiens, NCI-H226, Non-small cell lung cancer, read-out: Cell growth inhibition %
T-47D = format: cell-based; settings: Homo sapiens, T47D, Breast cancer, read-out: Cell growth inhibition %
OVCAR-4 = format: cell-based; settings: Homo sapiens, OVCAR-4, Ovarian cancer, read-out: Cell growth inhibition %
MALME-3M = format: cell-based; settings: Homo sapiens, Melanoma, read-out: Cell growth inhibition %
HCC-2998 = format: cell-based; settings: Homo sapiens, HCC-2998, Colon cancer, read-out: Cell growth inhibition %
RPMI-8226 = format: cell-based; settings: Homo sapiens, RPMI-8226, Leukemia, read-out: Cell growth inhibition %
K-562 = format: cell-based; settings: Homo sapiens, K562, K-562, Leukemia, read-out: Cell growth inhibition %
SK-MEL-28 = format: cell-based; settings: Homo sapiens, SK-MEL-28, Melanoma, read-out: Cell growth inhibition %
COLO 205 = format: cell-based; settings: Homo sapiens, COLO 205, Colon cancer, read-out: Cell growth inhibition %
PC-3 = format: cell-based; settings: Homo sapiens, PC-3, Prostate cancer, read-out: Cell growth inhibition %

Row | SMILES | inhibition at 10 µM (UO-31) | inhibition at 10 µM (786-0) | inhibition at 10 µM (HOP-92) | inhibition at 10 µM (HL-60(TB)) | inhibition at 10 µM (OVCAR-3) | inhibition at 10 µM (SN12C) | inhibition at 10 µM (TK-10) | inhibition at 10 µM (HOP-62) | inhibition at 10 µM (MCF7) | inhibition at 10 µM (CAKI-1) | inhibition at 10 µM (OVCAR-5) | inhibition at 10 µM (NCI-H522) | inhibition at 10 µM (UACC-257) | inhibition at 10 µM (DU-145) | inhibition at 10 µM (SK-MEL-2) | inhibition at 10 µM (SW-620) | inhibition at 10 µM (SNB-19) | inhibition at 10 µM (ACHN) | inhibition at 10 µM (U251) | inhibition at 10 µM (KM12) | other results
1 | C=CCn1c(SCC(=NO)c2ccc(OC)cc2)nnc1-c1c[nH]c2ccccc12 [Compound 7b, 2-((4-allyl-5-(1H-indol-3-yl)-4H-1,2,4-triazol-3-yl)thio)-1-(4-methoxyphenyl) Ethanone Oxime] | 19.2% | 0.73% | 8.91% | 16.1% | -9.23% | 8.24% | -27.2% | 2% | 11.3% | 1.5% | -4.1% | 8.33% | -11.5% | -5.85% | -7.88% | -2.43% | 1.65% | 7.56% | -5.26% | -5.28% | inhibition at 10 µM (HCT-116): 23.6%; inhibition at 10 µM (CCRF-CEM): 8.83%; inhibition at 10 µM (NCI-H23): 4.86%; inhibition at 10 µM (SNB-75): -12.9%; inhibition at 10 µM (NCI-H322M): -1.52%; inhibition at 10 µM (NCI-H226): 14.9%; inhibition at 10 µM (T-47D): 26.4%; inhibition at 10 µM (OVCAR-4): -1.81%; inhibition at 10 µM (MALME-3M): 3.2%; inhibition at 10 µM (HCC-2998): -8.35%; inhibition at 10 µM (RPMI-8226): 14.9%; inhibition at 10 µM (K-562): 13.6%; inhibition at 10 µM (SK-MEL-28): -3.89%; inhibition at 10 µM (COLO 205): -11.9%; inhibition at 10 µM (PC-3): 14.9%
2 | C=CCn1c(SC/C(=N\O)c2ccc(C)cc2)nnc1-c1c[nH]c2ccccc12 [Compound 7c, (Z)-2-((4-allyl-5-(1H-indol-3-yl)-4H-1,2,4-triazol-3-yl)thio)-1-(p-tolyl)ethanone Oxime] | 35% | -2.2% | 7.98% | 10% | -6.11% | 11.7% | -26.8% | 8.72% | 11.9% | 20.2% | 1.32% | 14.6% | -6.62% | -2.38% | 1.01% | 4.06% | 8.04% | 11.4% | -2.94% | 0.27% | Cell growth inhibition % (UO-31; UO-31, Renal cancer, 10 µM): 34.99%; inhibition at 10 µM (HCT-116): 22.3%; inhibition at 10 µM (CCRF-CEM): 2.91%; inhibition at 10 µM (NCI-H23): 9.29%; inhibition at 10 µM (SNB-75): 2.58%; inhibition at 10 µM (NCI-H322M): 5.67%; inhibition at 10 µM (NCI-H226): 23.1%; inhibition at 10 µM (T-47D): 26.5%; inhibition at 10 µM (OVCAR-4): 6.11%; inhibition at 10 µM (MALME-3M): 9.17%; inhibition at 10 µM (HCC-2998): 1.5%; inhibition at 10 µM (RPMI-8226): 8.76%; inhibition at 10 µM (K-562): 13.3%; inhibition at 10 µM (SK-MEL-28): -5.62%; inhibition at 10 µM (COLO 205): -6.48%; inhibition at 10 µM (PC-3): 7.62%
3 | C=CCn1c(SC/C(=N\O)c2ccc(Br)cc2)nnc1-c1c[nH]c2ccccc12 [Compound 7d, (Z)-2-((4-allyl-5-(1H-indol-3-yl)-4H-1,2,4-triazol-3-yl)thio)-1-(4-bromophenyl) Ethanone Oxime] | 38.3% | 13.4% | 21% | 35.7% | -3.34% | 16.3% | 12.9% | 0.14% | 17.9% | 25.8% | 6.82% | 18.5% | -1.32% | 6.21% | 8.97% | 7.31% | 8.36% | 17.9% | 5.15% | 8.58% | inhibition at 10 µM (HCT-116): 47%; inhibition at 10 µM (CCRF-CEM): 26.7%; inhibition at 10 µM (NCI-H23): 17.9%; inhibition at 10 µM (SNB-75): 6.02%; inhibition at 10 µM (NCI-H322M): 16.3%; inhibition at 10 µM (NCI-H226): 33.6%; inhibition at 10 µM (T-47D): 39.8%; inhibition at 10 µM (OVCAR-4): 24.5%; inhibition at 10 µM (MALME-3M): 4.84%; inhibition at 10 µM (HCC-2998): -3.65%; inhibition at 10 µM (RPMI-8226): 37.9%; inhibition at 10 µM (K-562): 40.8%; inhibition at 10 µM (SK-MEL-28): 7.82%; inhibition at 10 µM (COLO 205): 8.25%; inhibition at 10 µM (PC-3): 31.6%
